In patent US20180327367A1, “MACROCYCLIC BROAD SPECTRUM ANTIBIOTICS” (priority 2015, published 2018):
In brackets after ≈: the same amount, converted by molar mass. Where two headings read alike, the source gives them in different places.

Experiments:
[1] = target: T1, SpsB (Staphylococcus aureus signal peptidase) (Staphylococcus aureus, UniProt P0A070); assay: cell-based; type: biochemical; conditions: SpsB IC50, whole-cell S. aureus (USA300 background, overexpressing SpsB) as SpsB source; fluorogenic peptide substrate, kinetic read 30 min
T1 construct: This assay uses a suspension of Staphylococcus aureus cells as a source of SpsB instead of recombinant SpsB protein; endogenous in cells; host or cells: S. aureus, USA300 background, overexpressing SpsB (whole-cell suspension from frozen pellets)
T1 sequence (P0A070 whole entry): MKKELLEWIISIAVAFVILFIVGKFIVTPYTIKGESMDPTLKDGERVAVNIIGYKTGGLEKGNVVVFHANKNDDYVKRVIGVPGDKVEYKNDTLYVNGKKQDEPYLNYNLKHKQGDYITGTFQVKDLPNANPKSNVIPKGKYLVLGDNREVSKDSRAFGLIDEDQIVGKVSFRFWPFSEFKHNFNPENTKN
Method in brief: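 Cleavage of an internally quenched (Dabcyl)βAla-KPAKAAE(Edans) peptide, added as 20 μM solution mixed 1:1 with cells, was followed for 30 min at 340/490 nm. SpsB came from a suspension of SpsB-overexpressing USA300 S. aureus in Tween-80-containing PBS buffer. Slopes plotted against 3-fold compound dilutions gave IC50.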

[2] = tested on: Escherichia coli MC4100 harboring the IMP4213 (E. coli IMP); assay: microbe, parasite or virus in culture; type: cell-based; conditions: Escherichia coli, 22 h, read-out: MIC (μg/mL) E. coli IMP, E. coli MC4100 IMP4213, increased outer-membrane permeability; 35° C., 22 hours
Method in brief: (§1)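 Ten-point 2-fold series began at 4 μg/mL in protocol 2 and 0.5 μg/mL in protocol 3, in cation-adjusted MHB plus 0.002% Tween-80. Bacteria added to OD600 0.0005 final and incubated at 35° C for 22 hours per CLSI microdilution.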

[3] = tested on: Escherichia coli ATCC 25922; assay: Minimum inhibitory concentration, broth micro-dilution (CLSI), E. coli; type: cell-based; conditions: Escherichia coli, ATCC25922, 22 h, 35° C., 22 hours
[4] = tested on: Methicillin Resistant Staphylococcus aureus strain USA 300, NRS384; assay: Minimum inhibitory concentration, broth micro-dilution (CLSI), S. aureus; type: cell-based; conditions: Staphylococcus aureus, MRSA / NRS 384 / USA300, 22 h, 35° C., 22 hours
Method in brief: as §1

[5] = E. coli ATCC 25922, read-out: MIC (μg/mL) E. coli
[6] = MRSA USA 300 NRS384, read-out: MIC (μg/mL) S. aureus
[7] = read-out: MIC (μg/mL) E. coli, E. coli ATCC 25922
[8] = read-out: MIC (μg/mL) S. aureus, MRSA USA 300 NRS384

Structure (SMILES)	IC50 [1]	MIC [2]	MIC [3, 5]	MIC [4, 6]	MIC [3, 7]	MIC [4, 8]
Cc1cc(-n2cc(CC(C)C)cn2)ccc1C(=O)N[C@@H](CCN)C(=O)N(C)[C@@H]1C(=O)N[C@@H](C)C(=O)N[C@H](C(=O)NCC#N)Cc2ccc(OCCN)c(c2)-c2cc1ccc2OCCN [Compound 445]	1 nM	0.016 µg/mL (≈ 0.0182 µM)	1 µg/mL (≈ 1.14 µM)	0.094 µg/mL (≈ 0.107 µM)		
CCCCCCCCc1ccc(C(=O)N[C@@H](CCN)C(=O)N(C)[C@@H]2C(=O)N[C@@H](C)C(=O)N[C@H](C(=O)NCC#N)Cc3ccc(OCCN)c(c3)-c3cc2ccc3OCCN)c(CC(N)=O)c1 [Compound 448]	0.93 nM	0.016 µg/mL (≈ 0.0176 µM)			0.75 µg/mL (≈ 0.823 µM)	0.023 µg/mL (≈ 0.0252 µM)
CCCCCCCCc1ccc(C(=O)N[C@@H](CCN)C(=O)N(C)[C@@H]2C(=O)N[C@@H](C)C(=O)N[C@H](C(=O)NCC#N)Cc3ccc(OCCN)c(c3)-c3cc2ccc3OCCN)c(/C=C/C(N)=O)c1 [Compound 450]	0.66 nM	0.063 µg/mL (≈ 0.0682 µM)	16 µg/mL (≈ 17.3 µM)	0.13 µg/mL (≈ 0.141 µM)		
CCCCCCCCCCCC(=O)N[C@@H](CC#N)C(=O)N(C)[C@@H]1C(=O)N[C@@H](C)C(=O)N[C@H](C(=O)NCC#N)Cc2ccc(OCCN)c(c2)-c2cc1ccc2OCCN [Compound 453]	2.3 nM	0.13 µg/mL (≈ 0.159 µM)			16 µg/mL (≈ 19.6 µM)	0.13 µg/mL (≈ 0.159 µM)
CCCCCCCCCCCC(=O)N[C@@H](CCn1cncn1)C(=O)N(C)[C@@H]1C(=O)N[C@@H](C)C(=O)N[C@H](C(=O)NCC#N)Cc2ccc(OCCN)c(c2)-c2cc1ccc2OCCN [Compound 454]	1.8 nM	0.13 µg/mL (≈ 0.149 µM)	32 µg/mL (≈ 36.7 µM)	0.13 µg/mL (≈ 0.149 µM)		
CCCCCCCCc1ccc(C(=O)N[C@@H](CCCN)C(=O)N(C)[C@@H]2C(=O)N[C@@H](C)C(=O)N[C@H](C(=O)NCC#N)Cc3ccc(OCCCN)c(c3)-c3cc2ccc3OCCCN)cc1 [Compound 457]	0.64 nM	0.0078 µg/mL (≈ 0.0087 µM)	0.25 µg/mL (≈ 0.279 µM)	0.047 µg/mL (≈ 0.0524 µM)		
CCCCCCCCCCCCCC(=O)N(C)[C@@H]1C(=O)N[C@@H](C)C(=O)N[C@H](C(=O)NCC#N)Cc2ccc(OCCN(C)C)c(c2)-c2cc1ccc2OCCN(C)C [Compound 460]	14 nM	1.5 µg/mL (≈ 1.87 µM)	16 µg/mL (≈ 19.9 µM)	2 µg/mL (≈ 2.49 µM)		
C[C@@H]1NC(=O)[C@@H](N(C)C(=O)CCNCc2ccc(-c3ccc(Cl)cc3)cc2)c2ccc(OCCN)c(c2)-c2cc(ccc2OCCN)C[C@@H](C(=O)NCC#N)NC1=O [Compound 461]	0.74 nM	4 µg/mL (≈ 4.94 µM)	> 64 µg/mL	0.063 µg/mL (≈ 0.0778 µM)		
CCCCCc1ccc(CNCCC(=O)N(C)[C@@H]2C(=O)N[C@@H](C)C(=O)N[C@H](C(=O)NCC#N)Cc3ccc(OCCN)c(c3)-c3cc2ccc3OCCN)c(C)c1 [Compound 462]	0.81 nM	4 µg/mL (≈ 5.11 µM)	64 µg/mL (≈ 81.7 µM)	0.094 µg/mL (≈ 0.12 µM)		
CCCCCCCCCC(=O)NCC(=O)N(C)[C@@H]1C(=O)N[C@@H](C)C(=O)N[C@H](C(=O)NCC#N)Cc2ccc(OCCN)c(c2)-c2cc1ccc2OCCN [Compound 463]	3.2 nM	0.5 µg/mL (≈ 0.668 µM)	> 64 µg/mL	0.5 µg/mL (≈ 0.668 µM)		
CCCCCCCCCC(=O)NCCC(=O)N(C)[C@@H]1C(=O)N[C@@H](C)C(=O)N[C@H](C(=O)NCC#N)Cc2ccc(OCCN)c(c2)-c2cc1ccc2OCCN [Compound 464]	6 nM	> 4 µg/mL	> 64 µg/mL	1 µg/mL (≈ 1.31 µM)		
CCCCCCCCCCCCCC(=O)N[C@@H](CC)C(=O)N(C)[C@@H]1C(=O)N[C@@H](C)C(=O)N[C@H](C(=O)NCC#N)Cc2ccc(OCCN)c(c2)-c2cc1ccc2OCCN [Compound 465]	1.6 nM	0.19 µg/mL (≈ 0.228 µM)	4 µg/mL (≈ 4.8 µM)	0.094 µg/mL (≈ 0.113 µM)		
CCCCCCCCCCCC(=O)N[C@@H](CCCCN)C(=O)N(C)[C@@H]1C(=O)N[C@@H](C)C(=O)N[C@H](C(=O)NCC#N)Cc2ccc(O)c(c2)-c2cc1ccc2O [Compound 468]	3.4 nM	0.5 µg/mL (≈ 0.656 µM)	64 µg/mL (≈ 84 µM)	0.19 µg/mL (≈ 0.249 µM)		
CCCCCCCCCCNCCC(=O)N[C@@H](CO)C(=O)N(C)[C@@H]1C(=O)N[C@@H](C)C(=O)N[C@H](C(=O)NCC#N)Cc2ccc(O)c(c2)-c2cc1ccc2O [Compound 469]	5 nM	> 4 µg/mL	> 64 µg/mL	4 µg/mL (≈ 5.33 µM)		
